Laboratory results published in the NIST ThermoML archive (doi:10.1021/je501026m).
Numbers after ± are expanded uncertainties.

Details: Crystal; DTA

Normal melting temperature: 98.00 ± 1 °C
SMILES: C[n+]1ccn(CCOCCn2cc[n+](C)c2)c1.F[P-](F)(F)(F)(F)F.F[P-](F)(F)(F)(F)F
